# Structures can show the parent of a compound that is named as a salt.
row,Compound,melting point [°C]
1,Cc1cc(C(C)(C)C)c(O)c(S(=O)(=O)Nc2ccc(C#N)c(C(F)(F)F)c2)c1,159 to 162
2,"CCC(C)c1cc(C(C)(C)C)c(O)c(S(=O)(=O)Nc2ccc([N+](=O)[O-])cc2Cl)c1 (stereo not shown) (as salt: Na) [Example 7, 5-sec-Butyl-3-tert-butyl-N-(2-chloro-4-nitro-phenyl)-2-hydroxy-benzenesulfonamide]",106 to 108
3,"Cc1cc(C(C)(C)C)c(O)c(S(=O)(=O)Nc2ccc([N+](=O)[O-])cc2Cl)c1 [Example 1, 3-tert-Butyl-N-(2-chloro-4-nitro-phenyl)-2-hydroxy-5-methyl-benzenesulfonamide]",239 to 243
4,"Cc1cc(C(C)(C)C)c(O)c(S(=O)(=O)Nc2ccc(C#N)cc2Cl)c1 [Example 3, 3-tert-Butyl-N-(2-chloro-4-cyano-phenyl)-2-hydroxy-5-methyl-benzenesulfonamide]",101 to 105
5,"Cc1cc(C(C)(C)C)c(O)c(S(=O)(=O)Nc2ccc(I)cc2)c1 [Example 4, 3-tert-Butyl-2-hydroxy-N-(4-iodo-phenyl)-5-methyl-benzenesulfonamide]",184 to 185
6,"COc1ccc(NS(=O)(=O)c2cc(C)cc(C(C)(C)C)c2O)cc1 [Example 5, 3-tert-Butyl-2-hydroxy-N-(4-methoxy-phenyl)-5-methyl-benzenesulfonamide]",130 to 134
7,"CC(C)(C)c1cc(C(C)(C)C)c(O)c(S(=O)(=O)Nc2ccc([N+](=O)[O-])cc2Cl)c1 [Example 6, 3,5-Di-tert-butyl-N-(2-chloro-4-nitro-phenyl)-2-hydroxy-benzenesulfonamide]",158 to 161

# Source: patent publication US20080255240A1, “Sulfonamide Derivatives” (Novo Nordisk A/S, priority 2004, published 2008)
